In ChEMBL document CHEMBL1135077, “Human glucagon receptor antagonists based on alkylidene hydrazides” (Bioorg Med Chem Lett, 2002):

Species: Rattus norvegicus
Assay: In vitro metabolism in rat liver microsomes was evaluated to determine diminishing of glucuronidation rate
Type: ADME

Structure (SMILES)	Rate
COc1cc(/C=N/NC(=O)c2ccc(O)c(Cl)c2)cc(OC)c1OCc1ccc(C(C)C)cc1	169 pM min-1 (mg of protein)-1
COc1cc(/C=N/NC(=O)c2ccc(O)c(C#N)c2)cc(OC)c1OCc1ccc(C(C)C)cc1	27 pM min-1 (mg of protein)-1

Test system: not listed separately
Assay: Half life period in vivo
Type: ADME, organism-based

Structure (SMILES)	half-life [min]
COc1cc(/C=N/NC(=O)c2ccc(O)c(Cl)c2)cc(OC)c1OCc1ccc(C(C)C)cc1	18
COc1cc(/C=N/NC(=O)c2ccc(O)c(C#N)c2)cc(OC)c1OCc1ccc(C(C)C)cc1	60

Target: Glucagon receptor (Rattus norvegicus, UniProt P30082)
Assay: In vitro inhibitory activity against rat glucagon receptor using […]-labeled glucagon

Sequence of Glucagon receptor (Rattus norvegicus, UniProt P30082) (P30082 whole entry): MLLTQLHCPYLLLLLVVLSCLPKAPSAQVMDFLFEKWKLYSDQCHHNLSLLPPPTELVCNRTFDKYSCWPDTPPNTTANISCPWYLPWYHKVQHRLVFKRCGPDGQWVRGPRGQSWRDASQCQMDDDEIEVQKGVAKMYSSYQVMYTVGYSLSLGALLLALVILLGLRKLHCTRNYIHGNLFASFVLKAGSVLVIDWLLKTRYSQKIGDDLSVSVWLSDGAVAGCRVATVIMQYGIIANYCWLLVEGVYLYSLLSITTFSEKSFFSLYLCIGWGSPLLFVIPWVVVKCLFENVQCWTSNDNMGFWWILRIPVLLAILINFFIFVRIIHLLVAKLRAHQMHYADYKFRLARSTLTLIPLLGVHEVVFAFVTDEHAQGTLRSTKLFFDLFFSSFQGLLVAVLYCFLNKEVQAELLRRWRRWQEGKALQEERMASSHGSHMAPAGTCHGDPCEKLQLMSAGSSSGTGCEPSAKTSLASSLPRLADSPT

Structure (SMILES)	IC50 [nM]
COc1cc(/C=N/NC(=O)c2ccc(O)c(C#N)c2)cc(OC)c1OCc1ccc(C(C)C)cc1	1

Target: Glucagon receptor (Homo sapiens, UniProt P47871)
Assay: In vitro inhibitory activity against human glucagon receptor using […]-labeled glucagon

Sequence of Glucagon receptor (Homo sapiens, UniProt P47871) (P47871 whole entry): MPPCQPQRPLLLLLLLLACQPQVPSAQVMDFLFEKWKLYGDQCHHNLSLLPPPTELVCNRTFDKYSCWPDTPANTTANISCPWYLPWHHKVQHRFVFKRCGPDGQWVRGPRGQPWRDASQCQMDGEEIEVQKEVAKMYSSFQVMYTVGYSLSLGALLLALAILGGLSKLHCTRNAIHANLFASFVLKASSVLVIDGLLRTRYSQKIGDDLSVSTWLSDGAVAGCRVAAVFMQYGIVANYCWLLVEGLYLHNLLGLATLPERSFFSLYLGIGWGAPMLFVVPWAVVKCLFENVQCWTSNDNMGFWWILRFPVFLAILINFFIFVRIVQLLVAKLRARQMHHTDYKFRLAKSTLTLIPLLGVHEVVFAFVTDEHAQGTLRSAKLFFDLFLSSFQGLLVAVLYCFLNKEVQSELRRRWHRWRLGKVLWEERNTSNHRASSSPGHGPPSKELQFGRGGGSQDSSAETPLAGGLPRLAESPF

Structure (SMILES)	IC50 [nM]
Cc1cc(/C=N/NC(=O)c2ccc(O)c(Cl)c2)cc(C)c1OCc1ccc(C(C)C)cc1	330
COc1cc(/C=N/NC(=O)c2ccc(O)cc2)cc(OC)c1OCc1ccc(C(C)C)cc1	690
CC(C)c1ccc(COc2ccc(/C=N/NC(=O)c3ccc(O)c(Cl)c3)c3ccccc23)cc1	53
COc1cc(/C=N/NC(=O)c2ccc(O)c(O)c2)cc(OC)c1OCc1ccc(C(C)C)cc1	2700
COc1cc(/C=N/NC(=O)c2ccc(O)c(N)c2)cc(OC)c1OCc1ccc(C(C)C)cc1	940
CC(C)c1ccc(Cn2ccc3c(/C=N/NC(=O)c4ccc(O)c(Cl)c4)cccc32)cc1	84
COc1cc(/C=N/NC(=O)c2ccc(O)c(F)c2F)cc(OC)c1OCc1ccc(C(C)C)cc1	48
CC(C)c1ccc(Cn2cc(/C=N/NC(=O)c3ccc(O)c(Cl)c3)c3ccccc32)cc1	390
COc1ccc(/C=N/NC(=O)c2ccc(O)c(Cl)c2)c2ccccc12	870
COc1cc(CCNC(=O)c2ccc(O)c(Cl)c2)cc(OC)c1OCc1ccc(C(C)C)cc1	1900
COc1cc(/C(C)=N/NC(=O)c2ccc(O)c(Cl)c2)cc(OC)c1OCc1ccc(C(C)C)cc1	> 100000
COc1cc(/C=N/NC(=O)c2ccc(O)c(Cl)c2)cc(OC)c1OCc1ccc(OC(F)(F)F)cc1	180
COc1cc(/C=N/NC(=O)c2ccc(O)c(Cl)c2)cc(OC)c1OCc1ccc(C(C)C)cc1	23
COc1cc(/C=N/NC(=O)c2ccc(O)c([N+](=O)[O-])c2)cc(OC)c1OCc1ccc(C(C)C)cc1	50
COc1cc(/C=N/NC(=O)c2ccc(O)c(Cl)c2)ccc1OCc1ccc(C(C)C)cc1	1300
COc1cc(/C=N/NC(=O)c2ccc(O)c(Cl)c2Cl)cc(OC)c1OCc1ccc(C(C)C)cc1	31

Structure (SMILES)	IC50 [nM]
NC(=O)COc1ccc(/C=N/NC(=O)c2ccc(O)c(Cl)c2)c2ccccc12	1200
CC(C)c1ccc(COc2ccc(/C=N/NC(=O)c3ccc(O)c(Cl)c3)cc2)cc1	1500
O=C(N/N=C/c1ccc(OCC2CCCCO2)c2ccccc12)c1ccc(O)c(Cl)c1 (configuration not stated)	140
Cc1c(/C=N/NC(=O)c2ccc(O)c(Cl)c2)ccc(OCc2ccc(C(C)C)cc2)c1C	740
COc1cc(/C=N/NS(=O)(=O)c2ccc(O)c(Cl)c2)cc(OC)c1OCc1ccc(C(C)C)cc1	78300
COc1cc(CNNC(=O)c2ccc(O)c(Cl)c2)cc(OC)c1OCc1ccc(C(C)C)cc1	880
COc1cc(/C=N/NC(=O)c2ccc(O)c(Cl)c2)cc(OC)c1OCc1ccc(F)c(F)c1	150
COc1cc(/C=N/NC(=O)c2ccc(O)c(F)c2)cc(OC)c1OCc1ccc(C(C)C)cc1	110
CCN(CC)C(=O)COc1ccc(/C=N/NC(=O)c2ccc(O)c(Cl)c2)c2ccccc12	130
COc1cc(/C=N/NC(=O)c2ccc(O)c(Cl)c2)cc(C(=O)O)c1OCc1ccc(C(C)C)cc1	30000
O=C(N/N=C/c1ccc(OCc2ccc(OC(F)(F)F)cc2)c2ccccc12)c1ccc(O)c(Cl)c1	58
COc1cc(/C=C/C(=O)Nc2ccc(O)c(Cl)c2)cc(OC)c1OCc1ccc(C(C)C)cc1	6400
CC(C)(C)c1nc(COc2ccc(/C=N/NC(=O)c3ccc(O)c(Cl)c3)c3ccccc23)no1	160
COc1cc(/C=N/NC(=O)c2ccc(O)c(C#N)c2)cc(OC)c1OCc1ccc(C(C)C)cc1	20
COc1cc(CCNC(=N)c2ccc(O)c(Cl)c2)cc(OC)c1OCc1ccc(C(C)C)cc1	5200
COC(=O)C(Oc1c(OC)cc(/C=N/NC(=O)c2ccc(O)c(Cl)c2)cc1OC)c1ccccc1 (configuration not stated)	690
